Laboratory results as given in PMC5566891, “Eukaryotic transporters for hydroxyderivatives of benzoic acid” (Scientific Reports, 2017).

Molecular target: T1, Hbt2 (Hbt2p) (Lodderomyces parapsilosis, UniProt G8BG57)
T1 construct: native untagged full-length transporter in wild-type cells; assigned by knockout of HBT2
Test: […]-substrate uptake, wild-type versus hbt2 knockout cells
Format: cell-based
Settings: 50 µM, 50 mM Tris-HCl pH 7.5, 28 °C, labelled compound

T1 sequence (G8BG57 entry or part of it): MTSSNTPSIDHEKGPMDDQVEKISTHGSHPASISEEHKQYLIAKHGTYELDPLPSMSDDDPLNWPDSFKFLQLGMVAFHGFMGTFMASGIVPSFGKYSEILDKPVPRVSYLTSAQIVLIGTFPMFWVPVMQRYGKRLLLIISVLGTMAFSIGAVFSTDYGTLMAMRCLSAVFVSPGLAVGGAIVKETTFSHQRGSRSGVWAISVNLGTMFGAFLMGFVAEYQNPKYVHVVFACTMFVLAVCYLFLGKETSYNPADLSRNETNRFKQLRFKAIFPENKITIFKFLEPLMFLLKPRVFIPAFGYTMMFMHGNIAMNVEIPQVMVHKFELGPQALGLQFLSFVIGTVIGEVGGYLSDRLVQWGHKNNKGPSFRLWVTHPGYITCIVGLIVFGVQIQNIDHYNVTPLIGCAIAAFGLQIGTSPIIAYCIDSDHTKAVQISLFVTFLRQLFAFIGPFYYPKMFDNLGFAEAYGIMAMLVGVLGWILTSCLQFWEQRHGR

O=C(O)c1ccc(O)c(O)c1 [protocatechuate] was tested, and the “14C-substrate uptake, wild-type versus hbt2 knockout cells” value (cells grown on hydroquinone) was “uptake of both substrates is impaired in the ∆hbt2/∆hbt2 mutant”.
In the case of O=C(O)c1ccc(O)cc1 [4-hydroxybenzoate], the “14C-substrate uptake, wild-type versus hbt2 knockout cells” value (cells grown on 4-hydroxybenzoate or hydroquinone) is reported as “uptake of both substrates is impaired in the ∆hbt2/∆hbt2 mutant”.
